Biological target: T1, hCRTH2 (Homo sapiens, UniProt Q9Y5Y4)
T1 construct: expressed in transfected cells; host or cells: HEK (human embryonic kidney) cells expressing hCRTH2; membrane preparation
T1 sequence (Q9Y5Y4 1-395): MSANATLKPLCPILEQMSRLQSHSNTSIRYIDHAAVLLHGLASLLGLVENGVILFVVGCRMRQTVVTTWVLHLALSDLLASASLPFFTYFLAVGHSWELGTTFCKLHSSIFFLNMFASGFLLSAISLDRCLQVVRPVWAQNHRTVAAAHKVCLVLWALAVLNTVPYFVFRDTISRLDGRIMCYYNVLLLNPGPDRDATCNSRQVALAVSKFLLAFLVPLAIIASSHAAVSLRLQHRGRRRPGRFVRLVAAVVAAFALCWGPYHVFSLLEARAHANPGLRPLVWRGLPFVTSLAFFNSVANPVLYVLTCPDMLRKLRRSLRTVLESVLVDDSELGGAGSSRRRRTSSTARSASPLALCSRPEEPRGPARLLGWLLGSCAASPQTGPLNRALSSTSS
Experiment: Radioligand binding assay ([3H]PGD2 competition, HEK-hCRTH2 membranes)
Conditions: [3H]PGD2 binding, values in text
How it was run: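 Competition against 3.0 nM [3H]PGD2 was run for 60 min at room temperature in pH 7.4 Tris-HCl buffer with EDTA, 2 mM MnCl2 and 1% DMSO, using 8-20 μg HEK-hCRTH2 membrane protein. 10 μM PGD2 set non-specific binding; filter-bound counts were read by scintillation.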

| Ki | Structure (SMILES) |
| --- | --- |
| 39.2 nM | C[C@@H](CCc1nc2cc(C(=O)N(C)Cc3ccc(F)cc3)ccc2nc1-c1ccccc1)CC(=O)O [compound 292] |

Same assay, conditions: [3H]PGD2 competition, Table B

| Structure (SMILES) | Ki |
| --- | --- |
| C[C@@H](CCc1nc2cc(C(=O)N3CC[C@@H](c4ccccc4)C3)ccc2nc1-c1ccccc1)CC(=O)O [compound 291, (S)-3-methyl-5-(3-phenyl-7-((S)-3-phenylpyrrolidine-1-carbonyl)quinoxalin-2-yl)pentanoic acid] | 2.1 to 20 nM |
| C[C@@H](CCc1nc2cc(C(=O)N(C)Cc3ccc(F)cc3)ccc2nc1-c1ccccc1)CC(=O)O [compound 292] | 20.1 to 200 nM |
| C[C@@H](CCc1nc2cc(C(=O)N[C@@H]3CCCc4ccccc43)ccc2nc1-c1ccccc1)CC(=O)O [compound 293, (S)-3-methyl-S-(3-phenyl-7-(((R)-1,2,3,4-tetrahydronaphthalen-1-yl)carbamoyl)quinoxalin-2-yl)pentanoic acid] | 2.1 to 20 nM |
| O=C(O)CCCCc1nc2cc(C(=O)NC3CCCOc4ccccc43)ccc2nc1-c1ccccc1 (stereo not drawn) [compound 294, 5-(3-phenyl-7-((2,3,4,5-tetrahydrobenzo[b]oxepin-5-yl)carbamoyl)quinoxalin-2-yl)pentanoic acid] | 2.1 to 20 nM |
| CC1(C)CC(NC(=O)c2ccc3nc(-c4ccccc4)c(CCCCC(=O)O)nc3c2)c2ccccc2O1 (stereo not drawn) [compound 295, 5-(7((2,2-dimethylchroman-4-yl)carbamoyl)-3-phenylquinoxalin-2-yl)pentanoic acid] | 2.1 to 20 nM |
| CC1(C)CCC(NC(=O)c2ccc3nc(-c4ccccc4)c(CCCCC(=O)O)nc3c2)c2ccccc21 (stereo not drawn) [compound 296, 5-(7-((4,4-dimethyl-1,2,3,4-tetrahydronaphthalen-1-yl)carbamoyl)-3-phenylquinoxalin-2-yl)pentanoic acid] | 2.1 to 20 nM |
| O=C(O)CCCCc1nc2cc(C(=O)N3CCC4(CCCc5ccccc54)C3)ccc2nc1-c1ccccc1 (stereo not drawn) [compound 297, 5-(7-(3,4-dihydro-2H-spiro[naphthalene-1,3′-pyrrolidin]-1′-ylcarbonyl)-3-phenylquinoxalin-2-yl)pentanoic acid] | 2.1 to 20 nM |
| O=C(O)CCCCc1nc2cc(C(=O)N3CCC4(CC3)CNC(=O)c3ccccc34)ccc2nc1-c1ccccc1 [compound 298, 5-(7-(i-oxo-2,3-dihydro-1H-spiro[isoquinoline-4,4′-piperidin]-1′-ylcarbonyl)-3-phenylquinoxalin-2-yl)pentanoic acid] | 2.1 to 20 nM |
| O=C(O)CCCCc1nc2cc(C(=O)N3CCC4(CC3)NC(=O)Cc3ccccc34)ccc2nc1-c1ccccc1 [compound 299, 5-(7-(3-oxo-3,4-dihydro-2H-spiro[isoquinoline-1,4′-piperidin]-1′-ylcarbonyl)-3-phenylquinoxalin-2-yl)pentanoic acid] | 2.1 to 20 nM |
| O=C(O)CCCCc1nc2cc(C(=O)N3CCC4(CC3)Cc3ccccc3C(=O)N4)ccc2nc1-c1ccccc1 [compound 300, 5-(7-(1-oxo-2,4-dihydro-1H-spiro[isoquinoline-3,4′-piperidin]-1′-ylcarbonyl)-3-phenylquinoxalin-2-yl)pentanoic acid] | 2.1 to 20 nM |
| O=C(O)CCCCc1nc2cc(C(=O)N[C@@H]3CCSc4ccccc43)ccc2nc1-c1ccccc1 [compound 301, (R)-5-(3-phenyl-7-(thiochroman-4-ylcarbamoyl)quinoxalin-2-yl)pentanoic acid] | 2.1 to 20 nM |
| O=C(O)CCCCc1nc2cc(C(=O)N3CCN(Cc4ccccc4)CC3)ccc2nc1-c1ccccc1 [compound 302, 5-(7-(4-benzylpiperazine-1-carbonyl)-3-phenylquinoxalin-2-yl)pentanoic acid] | 2.1 to 20 nM |
| N#Cc1cccnc1N1CCN(C(=O)c2ccc3nc(-c4ccccc4)c(CCCCC(=O)O)nc3c2)CC1 [compound 303, 5-(7-(4-(3-cyanopyridin-2-yl)piperazine-1-carbonyl)-3-phenylquinoxalin-2-yl)pentanoic acid] | 2.1 to 20 nM |
| O=C(O)CCCCc1nc2cc(C(=O)N3CCN(c4c(Cl)cncc4Cl)CC3)ccc2nc1-c1ccccc1 [compound 304, 5-(7-(4-(3,5-dichloropyridin-4-yl)piperazine-1-carbonyl)-3-phenylquinoxalin-2-yl)pentanoic acid] | 2.1 to 20 nM |
| O=C(O)CCCCc1nc2cc(C(=O)N3CCN(c4ccccc4C(F)(F)F)CC3)ccc2nc1-c1ccccc1 [compound 305, 5-(3-phenyl-7-(4-(2-(trifluoromethyl)phenyl)piperazine-1-carbonyl)quinoxalin-2-yl)pentanoic acid] | 2.1 to 20 nM |
| O=C(O)CCCCc1nc2cc(C(=O)N3CCN(c4nccs4)CC3)ccc2nc1-c1ccccc1 [compound 306, 5-(3-phenyl-7-(4-(thiazol-2-yl)piperazine-1-carbonyl)quinoxalin-2-yl)pentanoic acid] | 20.1 to 200 nM |
| O=C(O)CCCCc1nc2cc(C(=O)N3Cc4ccccc4C3)ccc2nc1-c1ccccc1 [compound 307, 5-(7-(isoindoline-2-carbonyl)-3-phenylquinoxalin-2-yl)pentanoic acid] | 20.1 to 200 nM |
| O=C(O)CCCCc1nc2cc(C(=O)N3CCN(c4ccccc4Cl)CC3)ccc2nc1-c1ccccc1 [compound 308, 5-(7-(4-(2-chlorophenyl)piperazine-1-carbonyl)-3-phenylquinoxalin-2-yl)pentanoic acid] | 2.1 to 20 nM |

Other lines, results leading:

| Ki | Structure (SMILES) |
| --- | --- |
| 2.1 to 20 nM | O=C(O)CCCCc1nc2cc(C(=O)N3CCN(c4cccc(C(F)(F)F)c4)CC3)ccc2nc1-c1ccccc1 [compound 309, 5-(3-phenyl-7-(4-(3-(trifluoromethyl)phenyl)piperazine-l-carbonyl)quinoxalin-2-yl)pentanoic acid] |
| 2.1 to 20 nM | O=C(O)CCCCc1nc2cc(C(=O)N[C@H]3CCOc4cc(F)ccc43)ccc2nc1-c1ccccc1 [compound 310, (S)-5-(7((7-fluorochroman-4-yl)carbamoyl)-3-phenylquinoxalin-2-yl)pentanoic acid] |
| 2.1 to 20 nM | O=C(O)CCCCc1nc2cc(C(=O)NC3CCCc4cc(OCc5ccccc5)ccc43)ccc2nc1-c1ccc(Cl)cc1 (stereo not drawn) [compound 311, 5-(7-((6-(benzyloxy)-1,2,3,4-tetrahydronaphthalen-1-yl)carbamoyl)-3-(4-chlorophenyl)quinoxalin-2-yl)pentanoic acid] |
| 2.1 to 20 nM | COc1ccc2c(c1)CCCC2NC(=O)c1ccc2nc(-c3ccc(Cl)cc3)c(CCCCC(=O)O)nc2c1 (stereo not drawn) [compound 312, 5-(3-(4-chlorophenyl)-7((6-methoxy-1,2,3,4-tetrahydronaphthalen-1-yl)carbamoyl)quinoxalin-2-yl)pentanoic acid] |
| 2.1 to 20 nM | O=C(O)CCCCc1nc2cc(C(=O)N[C@H]3COc4cc(F)ccc43)ccc2nc1-c1ccc(Cl)cc1 [compound 313, (R)-5-(3-(4-chlorophenyl)-7-((6-fluoro-2,3-dihydrobenzofuran-3-yl)carbamoyl)quinoxalin-2-yl)pentanoic acid] |
| 2.1 to 20 nM | O=C(O)CCCCc1nc2cc(C(=O)N[C@@H]3COc4cc(F)ccc43)ccc2nc1-c1ccc(Cl)cc1 [compound 314, (S)-5-(3-(4-chlorophenyl)-7-((6-fluoro-2,3-dihydrobenzofuran-3-yl)carbamoyl)quinoxalin-2-yl)pentanoic acid] |
| 2.1 to 20 nM | CN1C(=O)CC(NC(=O)c2ccc3nc(-c4ccc(Cl)cc4)c(CCCCC(=O)O)nc3c2)c2ccccc21 (stereo not drawn) [compound 315, 5-(3-(4-chlorophenyl)-7-((1-methyl-2-oxo-1,2,3,4-tetrahydroquinolin-4-yl)carbamoyl)quinoxalin-2-yl)pentanoic acid] |
| 2.1 to 20 nM | O=C(O)CCCCc1nc2cc(C(=O)N3CCC(N4Cc5ccccc5C4=O)CC3)ccc2nc1-c1ccc(Cl)cc1 [compound 316, 5-(3-(4-chlorophenyl)-7-(4-(1-oxoisoindolin-2-yl)piperidine-1-carbonyl)quinoxalin-2-yl)pentanoic acid] |
| 2.1 to 20 nM | O=C(O)CCCCc1nc2cc(C(=O)NCC3(c4ccc(OC(F)(F)F)cc4)CC3)ccc2nc1-c1ccc(Cl)cc1 [compound 317, 5-(3-(4-chlorophenyl)-7-(((1-(4-(trifluoromethoxy)phenyl)cyclopropyl)methyl)carbamoyl)quinoxalin-2-yl)pentanoic acid] |
| 2.1 to 20 nM | O=C(O)CCCCc1nc2cc(C(=O)NCC3(c4ccc(F)cc4)CC3)ccc2nc1-c1ccc(Cl)cc1 [compound 318, 5-(3-(4-chlorophenyl)-7-(((1-(4-fluorophenyl)cyclopropyl)methyl)carbamoyl)quinoxalin-2-yl)pentanoic acid] |
| 2.1 to 20 nM | O=C(O)CCCCc1nc2cc(C(=O)NC3NC(=O)c4ccccc43)ccc2nc1-c1ccc(Cl)cc1 (stereo not drawn) [compound 319, 5-(3-(4-chlorophenyl)-7((3-oxoisoindolin-1-yl)carbamoyl)quinoxalin-2-yl)pentanoic acid] |
| 2.1 to 20 nM | O=C(O)CCCCc1nc2cc(C(=O)N[C@@H]3CCS(=O)(=O)c4ccccc43)ccc2nc1-c1ccc(Cl)cc1 [compound 320, (R)-5-(3-(4-chlorophenyl)-7-((1,1-dioxidothiochroman-4-yl)carbamoyl)quinoxalin-2-yl)pentanoic acid] |
| 2.1 to 20 nM | C[C@H](NC(=O)c1ccc2nc(-c3ccc(Cl)cc3)c(CCCCC(=O)O)nc2c1)c1cncc2ccccc12 [compound 321, (S)-5-(3-(4-chlorophenyl)-7-((1-(isoquinolin-4-yl)ethyl)carbamoyl)quinoxalin-2-yl)pentanoic acid] |
| 2.1 to 20 nM | C[C@H](NC(=O)c1ccc2nc(-c3ccc(Cl)cc3)c(CCCCC(=O)O)nc2c1)c1cccc2ncccc12 [compound 322, (S)-5-(3-(4-chlorophenyl)-7-((1-(quinolin-5-yl)ethyl)carbamoyl)quinoxalin-2-yl)pentanoic acid] |
